Assay [1] has as its target T1, Bcl-xL (GST-Bcl-xL) (Homo sapiens, UniProt Q07817). The experiment in a line: TR-FRET binding assay, competition with F-Bak for the Bcl-xL binding site. To be noted: values listed in the order of Table 1, read-out: TR-FRET assay results (Ki), Bcl-xL.
In assay [2] the target is T1, Bcl-xL (GST-Bcl-xL). The experiment in a line: AlphaScreen Bcl-xL binding assay, competition with biotinylated Bim peptide. More on the design: made in house. As to conditions: values listed in the order of Table 1; read-out: Alphascreen results (IC50) against the Bcl-xL protein. From the text:
The measurement of competition of compounds of the invention with Bim26-mer for a Bcl-2 family protein binding site using an Alpha Screen Bcl-xL binding assay:
The BH3 proteins AlphaScreen™ assay was used to identify active small molecules Bcl-2 family protein screen, e.g., Bcl-xL, hmMcl-1 screen.
The beads come in close proximity when the protein and the peptides interact. Donor beads contain a photosensitiser that converts oxygen to an excited form of O2 at an excitation of 680 nm. Energy is transformed from the singlet oxygen and reacts with chemiluminescers on the acceptor bead, resulting in light emission at 520-620 nm. […] With this information, the IC50 of each compound was calculated
GST-Bcl-xL, GST-hmMcl-1 and biotinylated GST proteins were prepared in-house and were stored as stock solutions at −80° C. The biotinylated-Bak, and biotinylated-Bim peptides were purchased from Auspep and were stored as 500 μM stock solutions in 100% DMSO at −80° C. […] DMSO was purchased from AnalaR.
Compounds of the invention were prepared as 10 mM stocks with 100% DMSO on the day prior to performing the assay. […] To achieve a final compound concentration of 1 μM, in a separate matrical plate, 28 μL of 100% DMSO and 2 μL of 10 mM compound was added to a well, mixed well, 2 μL of this solution was taken and added to 38 μL of 100% DMSO. 20 μL of this solution was added to the test matrical plate. Several control compounds were included in the test plates. For the control wells 15 μL 100% DMSO only was added to the appropriate wells of each plate. The compound plates were then serially diluted 2 fold using the MiniTrak. Once titrations were complete, the compound plate was immediately covered with a foil seal to prevent evaporation.
The assay and bead buffers were prepared fresh. Each titrated compound plate was assayed in duplicate. The following volumes were sufficient to run 12 Proxiplates (4 assay plates run in duplicate in each of Bclxl, hmMcl and counter assays)
Protein and Peptide Preparation; and Assay Performance • 1. The assay and bead buffers were used to prepare the acceptor and donor solutions. ALPHASCREEN™ beads are light sensitive and therefore prepared in a darkened room. 2.5 μL of beads were added per 1 mL of buffer. • 2. The volume of protein or peptide to add was calculated using the following formula:
V2=Volume of stock protein/Peptide to add to Acceptor/Donor solution • 3. The assay components were prepared as separate Acceptor and Donor Solutions. The Acceptor Solution contained Acceptor beads and target protein, while the Donor Solution contained Donor beads and biotinylated peptide.
• 4. After the solutions were prepared, they were left to incubate for 30 minutes at room temperature to allow the beads to bind to the protein and the peptide. • 5. 50 μL of Bcl-xL solution, 50 μL of hmMcl-1 solution and 50 μL of biotinylated-GST were added into separate deep wells on an assay plate. A control 50 μL Assay/Bead buffer was added separate well plates (no protein). • 6. 50 μL of Bim solution and 50 μL of Bak solution were added into separate deep well plates. • 7. Transfer 0.3 μL it of sample from the compound plate into each assay plate. • 8. Incubated for 30 mins at RT, then add 5 μL of the Donor solution. After addition of the Donor solution, tapped plates gently and sealed individually with adhesive film. • 9.
The percent inhibition was calculated using the following equation:
[formula] • x=RFU obtained after compound treatment • μ^−=RFU obtained for the negative controls (no protein controls) • μ^+=RFU obtained for the positive controls (DMSO vehicle controls)

Each structure is given as a SMILES string.

Ki and IC50 data for 19 compounds are collected here from patent publication US8232273B2, “Heterocyclic compounds and methods of use” (Genentech, Inc., priority 2008, dated 2012).

Broadly, the Ki is the dissociation constant of the complex between target and ligand, obtained from inhibition or displacement. One may read the IC50 as the concentration at which inhibition is half-maximal.

T1 sequence (Q07817 whole entry, species assumed): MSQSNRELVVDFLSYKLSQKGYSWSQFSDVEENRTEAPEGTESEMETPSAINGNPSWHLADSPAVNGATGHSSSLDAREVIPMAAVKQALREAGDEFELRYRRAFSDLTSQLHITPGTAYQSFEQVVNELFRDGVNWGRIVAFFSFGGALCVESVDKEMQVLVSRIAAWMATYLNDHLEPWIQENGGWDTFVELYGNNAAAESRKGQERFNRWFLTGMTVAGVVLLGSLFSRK

As for `O=C(Nc1nc2ccccc2s1)c1cccc2c1CN(c1ccc(CCc3ccccc3)c(C(=O)O)n1)CC2` [Compound 127, 6-(8-(benzo[d]thiazol-2-ylcarbamoyl)-3,4-dihydroisoquinolin-2(1H)-yl)-3-phenethylpicolinic acid], on Bcl-xL (GST-Bcl-xL) [1], the Ki is 660 nM. The IC50 on Bcl-xL (GST-Bcl-xL) [2] is 598 nM.
The like results for `CN(C)CCOc1ccc(OCCCc2ccc(N3CCc4cccc(C(=O)Nc5nc6ccccc6s5)c4C3)nc2C(=O)O)cc1` [Compound 132, 6-(8-(benzo[d]thiazol-2-ylcarbamoyl)-3,4-dihydroisoquinolin-2(1H)-yl)-3-(3-(4-(2-(dimethylamino)ethoxy)phenoxy)propyl)picolinic acid] were, in that order, 0.18 nM and 0.9 nM.
Take `CN(C)CC#Cc1ccc(OCCCc2ccc(N3CCc4cccc(C(=O)Nc5nc6ccccc6s5)c4C3)nc2C(=O)O)cc1` [Compound 133, 6-(8-(benzo[d]thiazol-2-ylcarbamoyl)-3,4-dihydroisoquinolin-2(1H)-yl)-3-(3-(4-(3-(dimethylamino)prop-1-ynyl)phenoxy)propyl)picolinic acid]: on Bcl-xL (GST-Bcl-xL) [1], the Ki is 0.023 nM. Further, at Bcl-xL (GST-Bcl-xL) [2], the IC50 was 1.2 nM.
The like results for `NCc1ccc(OCCCc2sc(N3CCc4cccc(C(=O)Nc5nc6ccccc6s5)c4C3)nc2C(=O)O)cc1` [Compound 141, 5-(3-(4-(aminomethyl)phenoxy)propyl)-2-(8-(benzo[d]thiazol-2-ylcarbamoyl)-3,4-dihydroisoquinolin-2(1H)-yl)thiazole-4-carboxylic acid] were, in that order, 0.487 nM and 3800 nM.
Taken in the same sequence, the figures for `O=C(O)c1csc(N2CCc3cccc(C(=O)Nc4nc5ccccc5s4)c3C2)n1` [Example 1, 2-(8-(Benzo[d]thiazol-2-ylcarbamoyl)-3,4-dihydroisoquinolin-2(1H)-yl)thiazole-4-carboxylic acid] were 77 nM and 100 nM.
The like results for `O=C(Nc1nc2ccccc2s1)c1cccc2c1CN(c1nc(C(=O)O)c(CCCSc3ccncc3)s1)CC2` [Example 3, 2-(8-(benzo[d]thiazol-2-ylcarbamoyl)-3,4-dihydroisoquinolin-2(1H)-yl)-5-(3-(pyridin-4-ylthio)propyl)thiazole-4-carboxylic acid] were, in that order, 0.2 nM and 1 nM.
`CC(C)(C)OC(=O)Nc1ccc(OCCCc2sc(N3CCc4cccc(C(=O)Nc5nc6ccccc6s5)c4C3)nc2C(=O)O)cc1` [Example 4, 2-(8-(benzo[d]thiazol-2-ylcarbamoyl)-3,4-dihydroisoquinolin-2(1H)-yl)-5-(3-(4-(tert-butoxycarbonylamino)phenoxy)propyl)thiazole-4-carboxylic acid]: at Bcl-xL (GST-Bcl-xL) [1], the Ki was 0.3 nM. On Bcl-xL (GST-Bcl-xL) [2], the IC50 was found to be 0.8 nM.
Take `CC(C)(C)OC(=O)Nc1cccc(OCCCc2sc(N3CCc4cccc(C(=O)Nc5nc6ccccc6s5)c4C3)nc2C(=O)O)c1` [Example 5, 2-(8-(benzo[d]thiazol-2-ylcarbamoyl)-3,4-dihydroisoquinolin-2(1H)-yl)-5-(3-(3-(tert-butoxycarbonylamino)phenoxy)propyl)thiazole-4-carboxylic acid]: the Ki on Bcl-xL (GST-Bcl-xL) [1] is 1 nM. The IC50 on Bcl-xL (GST-Bcl-xL) [2] came out at 2 nM.
As to `Nc1ccc(OCCCc2sc(N3CCc4cccc(C(=O)Nc5nc6ccccc6s5)c4C3)nc2C(=O)O)cc1` [Example 6, 5-(3-(4-aminophenoxy)propyl)-2-(8-(benzo[d]thiazol-2-ylcarbamoyl)-3,4-dihydroisoquinolin-2(1H)-yl)thiazole-4-carboxylic acid], the Ki on Bcl-xL (GST-Bcl-xL) [1] is 0.2 nM. Moreover, the IC50 on Bcl-xL (GST-Bcl-xL) [2] stood at 2 nM.
Taken in the same sequence, the figures for `O=C(Nc1nc2ccccc2s1)c1cccc2c1CN(c1nc(C(=O)O)c(CCCn3cccn3)s1)CC2` [Example 7, 5-(3-(1H-pyrazol-1-yl)propyl)-2-(8-(benzo[d]thiazol-2-ylcarbamoyl)-3,4-dihydroisoquinolin-2(1H)-yl)thiazole-4-carboxylic acid] were 7 nM and 25 nM.
Taken in the same sequence, the figures for `Nc1cccc(OCCCc2sc(N3CCc4cccc(C(=O)Nc5nc6ccccc6s5)c4C3)nc2C(=O)O)c1` [Example 9, 5-(3-(3-aminophenoxy)propyl)-2-(8-(benzo[d]thiazol-2-ylcarbamoyl)-3,4-dihydroisoquinolin-2(1H)-yl)thiazole-4-carboxylic acid] were 0.07 nM and 0.8 nM.
On to `O=C(Nc1nc2ccccc2s1)c1cccc2c1CN(c1nc(C(=O)O)c(CCCOc3ccncc3)s1)CC2` [Example 10, 2-(8-(benzo[d]thiazol-2-ylcarbamoyl)-3,4-dihydroisoquinolin-2(1H)-yl)-5-(3-(pyridin-4-yloxy)propyl)thiazole-4-carboxylic acid], for which, at Bcl-xL (GST-Bcl-xL) [1], the Ki was 0.1 nM. Besides, the IC50 at Bcl-xL (GST-Bcl-xL) [2] stood at 1 nM.
Turning to `CN(C)c1cccc(OCCCc2sc(N3CCc4cccc(C(=O)Nc5nc6ccccc6s5)c4C3)nc2C(=O)O)c1` [Example 11, 2-(8-(benzo[d]thiazol-2-ylcarbamoyl)-3,4-dihydroisoquinolin-2(1H)-yl)-5-(3-(3-(dimethylamino)phenoxy)propyl)thiazole-4-carboxylic acid], at Bcl-xL (GST-Bcl-xL) [1], the Ki came to 0.1 nM. In addition, the IC50 on Bcl-xL (GST-Bcl-xL) [2] was 2 nM.
Turning to `O=C(Nc1nc2ccccc2s1)c1cccc2c1CN(c1nc(C(=O)O)c(C#CCO)s1)CC2` [Example 14, 2-(8-(Benzo[d]thiazol-2-ylcarbamoyl)-3,4-dihydroisoquinolin-2(1H)-yl)-5-(3-hydroxyprop-1-ynyl)thiazole-4-carboxylic acid], the Ki on Bcl-xL (GST-Bcl-xL) [1] was determined as 6 nM. In addition, at Bcl-xL (GST-Bcl-xL) [2], the IC50 was determined as 20 nM.
The like results for `O=C(Nc1nc2ccccc2s1)c1cccc2c1CN(c1nc(C(=O)O)c(CCCn3cnc4ccccc43)s1)CC2` [Example 15, 5-(3-(1H-benzo[d]imidazol-1-yl)propyl)-2-(8-(benzo[d]thiazol-2-ylcarbamoyl)-3,4-dihydroisoquinolin-2(1H)-yl)thiazole-4-carboxylic acid] were, in that order, 3 nM and 10 nM.
Turning to `O=C(Nc1nc2ccccc2s1)c1cccc2c1CN(c1nc(C(=O)O)c(CCCn3ccnc3)s1)CC2` [Example 16, 5-(3-(1H-imidazol-1-yl)propyl)-2-(8-(benzo[d]thiazol-2-ylcarbamoyl)-3,4-dihydroisoquinolin-2(1H)-yl)thiazole-4-carboxylic acid], the Ki on Bcl-xL (GST-Bcl-xL) [1] worked out at 6 nM. For the same compound, at Bcl-xL (GST-Bcl-xL) [2], the IC50 turned out to be 10 nM.
Taken in the same sequence, the figures for `O=C(Nc1nc2ccccc2s1)c1cccc2c1CN(c1nc(C(=O)O)c(CCCn3ccc4cccnc43)s1)CC2` [Example 17, 5-(3-(1H-pyrrolo[2,3-b]pyridin-1-yl)propyl)-2-(8-(benzo[d]thiazol-2-ylcarbamoyl)-3,4-dihydroisoquinolin-2(1H)-yl)thiazole-4-carboxylic acid] were 4 nM and 20 nM.
Taken in the same sequence, the figures for `O=C(Nc1nc2ccccc2s1)c1cccc2c1CN(c1nc(C(=O)O)c(CCCN3CCCC3)s1)CC2` [Example 18, 2-(8-(benzo[d]thiazol-2-ylcarbamoyl)-3,4-dihydroisoquinolin-2(1H)-yl)-5-(3-(pyrrolidin-1-yl)propyl)thiazole-4-carboxylic acid] were 4 nM and 6 nM.
The like results for `O=C(Nc1nc2ccccc2s1)c1cccc2c1CN(c1nc(C(=O)O)c(CCCN3CCCCC3)s1)CC2` [Example 20, 2-(8-(benzo[d]thiazol-2-ylcarbamoyl)-3,4-dihydroisoquinolin-2(1H)-yl)-5-(3-(piperidin-1-yl)propyl)thiazole-4-carboxylic acid] were, in that order, 3 nM and 8 nM.
